From patent publication US12338256B2, “Aza-tetracyclic oxazepine compounds and uses thereof” (Genentech, Inc., priority 2022, dated 2025)
Read-outs that look alike come from different tables or passages of the source.

Legend:
[1] = target: KRAS G12D (Homo sapiens, UniProt P01116, G12D); assay: KRAS G12D LoEnz Biochemical Assay, BODIPY-GDP Exchange TR-FRET (Example 500); details: read-out: KRas (G12D) GDP HTRF IC50
Description: Example 500: KRAS G12D LoEnz Biochemical Assay, BODIPY-GDP Exchange TR-FRET. Biochemical compound potencies are assessed by evaluating inhibition of SOS1-mediated nucleotide exchange in KRAS G12D. In this assay, the SOS1-promoted exchange of fluorescently-labeled GDP (BOPIDY-GDP) is monitored by time-resolved fluorescence resonance energy transfer (TR-FRET). Compounds solubilized in DMSO are dispensed as concentration series into 384-well white assay plates. A preformed complex of biotin-tagged recombinant human KRAS (0.06 nM mutant G12D) and 0.06 nM terbium-labeled streptavidin (CisBIO) prepared in 10 uL/well assay buffer (20 mM HEPES, pH 7.5, 50 mM NaCl, 10 mM MgCl2, 0.01% Tween-20 and 1 mM dithiothreitol) is added and allowed to incubate for 10-minutes at room temperature. The reaction is initiated with the addition of 5 uL 300 nM recombinant human SOS1 and 300 nM BODIPY-GDP in assay buffer. After a 120-minute incubation, the fluorescence is measured with excitation at 337 nm and emission at 490 and 520 nm. The TR-FRET ratio is determined as the fluorescence at 520 nm divided by the fluorescence at 490 nm multiplied by 10,000. The results are normalized to percent inhibition based on control samples: DMSO (0% inhibition) and control compound at a concentration that inhibits completely (100% inhibition). The normalized TR-FRET results are plotted against compound concentration, and the data are fit to a 4-parameter Hill equation to determine the IC50 values.

[2] = test system: AsPC-1 (homozygous mutant KRAS G12D human pancreatic cell line); assay: KRAS 3D-Cell Proliferation Assay, AsPC-1 (Example 503); format: cell-based; details: Homo sapiens, ASPC1, 168 h, AsPC-1 3D culture, 7 days, CellTiter-Glo 3D; read-out: Prolif AsPC-1 3D ATP IC50
Summary of the method: (§1)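 Luminescent ATP readout (CellTiter-Glo 3D, with mechanical mixing) measures growth of cells cultured in 3D after a 7-day compound exposure at 37° C. Percent inhibition is referenced to vehicle (DMSO) and 1 μM staurosporine controls, and IC50 comes from a four-parameter Hill fit.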

[3] = test system: HPAC (homozygous mutant KRAS G12D human pancreatic cell line); assay: KRAS 3D-Cell Proliferation Assay, HPAC (Example 503); format: cell-based; details: Homo sapiens, HPAC, 168 h, HPAC 3D culture, 7 days, CellTiter-Glo 3D; read-out: Prolif HPAC 3D ATP IC50
Summary of the method: as §1

[4] = test system: PC-9 (KRAS wild type human lung adenocarcinoma cell line); assay: KRAS 3D-Cell Proliferation Assay, PC-9 (Example 503); format: cell-based; details: 168 h, PC-9 3D culture, 7 days, CellTiter-Glo 3D, read-out: Prolif PC9 3D ATP IC50
Summary of the method: as §1

[5] = test system: H1975 (KRAS wild type human lung adenocarcinoma cell line); assay: KRAS 3D-Cell Proliferation Assay, H1975 (Example 503); format: cell-based; details: Homo sapiens, NCI-H1975, 168 h, H1975 3D culture, 7 days, CellTiter-Glo 3D; read-out: Prolif H1975 3D ATP IC50
Summary of the method: as §1

[6] = SOS1-mediated BODIPY-GDP exchange TR-FRET

Sequence of KRAS G12D (P01116 1-188 isoform P01116-2 G12D): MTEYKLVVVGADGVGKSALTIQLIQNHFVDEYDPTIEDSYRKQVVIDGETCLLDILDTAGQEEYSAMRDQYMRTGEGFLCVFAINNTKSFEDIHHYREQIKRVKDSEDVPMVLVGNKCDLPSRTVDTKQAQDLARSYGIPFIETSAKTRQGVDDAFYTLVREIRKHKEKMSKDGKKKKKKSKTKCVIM

`Cc1cc(N)c(Cl)c(-c2nc3c4c(nc(OC[C@@]56CCCN5C[C@H](F)C6)nc4c2Cl)N2C[C@H]4CC[C@H](N4)[C@H]2[C@H](C)O3)c1C(F)(F)F` (single isomer, unassigned) [240 (atrop. 1)] showed an IC50 [1, 6] of 44.9 nM.
For `CCc1cccc2cc(O)cc(-c3nc4c5c(nc(OCC67COC(C6)C7)nc5c3F)N3C[C@H]5CC[C@H](N5)[C@H]3[C@H](C)O4)c12` [Compound 28, 4-((5S,5aS,6S,9R)-12-((2-oxabicyclo[2.1.1]hexan-4-yl)methoxy)-1-fluoro-5-methyl-5a,6,7,8,9,10-hexahydro-5H-4-oxa-3,10a,11,13,14-pentaaza-6,9-methanonaphtho[1,8-ab]heptalen-2-yl)-5-ethylnaphthalen-2-ol], the IC50 [2] was 363 nM, the IC50 [3] was 257 nM and the IC50 [4] was 11000 nM. For the same compound, the IC50 [5] was 20000 nM.
With `C#Cc1cccc2cc(O)cc(-c3nc4c5c(ncnc5c3F)N3C[C@H]5CC[C@H](N5)[C@H]3[C@H](C)O4)c12` [Compound 54, 5-ethynyl-4-((5S,5aS,6S,9R)-1-fluoro-5-methyl-5a,6,7,8,9,10-hexahydro-5H-4-oxa-3,10a,11,13,14-pentaaza-6,9-methanonaphtho[1,8-ab]heptalen-2-yl)naphthalen-2-ol] the IC50 [2] was 2090 nM, the IC50 [3] was 3420 nM and the IC50 [4] was ≥ 20000 nM. The IC50 [5] was 20000 nM.
With `C#Cc1cccc2cc(O)cc(-c3nc4c5c(nc(OC[C@@]67CCCN6C[C@H](F)C7)nc5c3F)N3C[C@H]5CC[C@H](N5)[C@H]3[C@H](C)O4)c12` [Compound 11, 5-ethynyl-4-((5S,5aS,6S,9R)-1-fluoro-12-(((2R,7aS)-2-fluorotetrahydro-1H-pyrrolizin-7a(5H)-yl)methoxy)-5-methyl-5a,6,7,8,9,10-hexahydro-5H-4-oxa-3,10a,11,13,14-pentaaza-6,9-methanonaphtho[1,8-ab]heptalen-2-yl)naphthalen-2-ol] the IC50 [2] was 2.3 nM, the IC50 [3] was 2.41 nM and the IC50 [4] was ≥ 20000 nM. It also gave an IC50 [5] of 169 nM.
`Cc1c(F)c(N)cc(-c2nc3c4c(nc(OC[C@]5(CN6CC7(COC7)C6)CC5(F)F)nc4c2F)N2C[C@H]4CC[C@H](N4)[C@H]2[C@H](C)O3)c1C(F)(F)F` (single isomer, unassigned) [165 b] showed an IC50 ([1]; BODIPY-GDP exchange) of 0.1 nM.
`CCc1cccc2cc(O)cc(-c3nc4c5c(nc(OC[C@@]67CCCN6C[C@H](F)C7)nc5c3F)N3C[C@H]5CC[C@H](N5)[C@H]3CO4)c12` [Compound 5, 5-ethyl-4-((5aS,6S,9R)-1-fluoro-12-(((2R,7aS)-2-fluorotetrahydro-1H-pyrrolizin-7a(5H)-yl)methoxy)-5a,6,7,8,9,10-hexahydro-5H-4-oxa-3,10a,11,13,14-pentaaza-6,9-methanonaphtho[1,8-ab]heptalen-2-yl)naphthalen-2-ol] showed an IC50 [2] of 6.28 nM, an IC50 [3] of 7.06 nM and an IC50 [4] of 9050 nM. The IC50 [5] was 1400 nM.
For `C[C@@H]1Oc2nc(-c3cc(N)cc(F)c3C(F)(F)F)c(F)c3nc(OC[C@@]45CCCN4C[C@H](F)C5)nc(c23)N2C[C@H]3CC[C@H](N3)[C@@H]12` [Compound 17, 3-fluoro-5-((5S,5aS,6S,9R)-1-fluoro-12-(((2R,7aS)-2-fluorotetrahydro-1H-pyrrolizin-7a(5H)-yl)methoxy)-5-methyl-5a,6,7,8,9,10-hexahydro-5H-4-oxa-3,10a,11,13,14-pentaaza-6,9-methanonaphtho[1,8-ab]heptalen-2-yl)-4-(trifluoromethyl)aniline], the IC50 [2] was 1.71 nM, the IC50 [3] was 0.62 nM and the IC50 [4] was 7910 nM. For the same compound, the IC50 [5] was 1340 nM.
With `Cc1nc(N)cc(-c2nc3c4c(nc(OCC5(CN6CC7COCC(C6)C7(F)F)CC5)nc4c2F)N2C[C@H]4CC[C@H](N4)[C@H]2[C@H](C)O3)c1C(F)(F)F` [Compound 266, 4-((5S,5aS,6S,9R)-12-((1-((9,9-difluoro-3-oxa-7-azabicyclo[3.3.1]nonan-7-yl)methyl)cyclopropyl)methoxy)-1-fluoro-5-methyl-5a,6,7,8,9,10-hexahydro-5H-4-oxa-3,10a,11,13,14-pentaaza-6,9-methanonaphtho[1,8-ab]heptalene-2-yl)-6-methyl-5-(trifluoromethyl)pyridin-2-amine] the IC50 [1, 6] was 3.05 nM.
For `Cc1c(F)c(N)cc(-c2nc3c4c(nc(OC[C@@H]5CC[C@H]6COCCN65)nc4c2F)N2C[C@H]4CC[C@H](N4)[C@H]2[C@H](C)O3)c1C(F)(F)F` [Compound 31, 2-fluoro-5-((5S,5aS,6S,9R)-1-fluoro-12-(((6S,8aS)-hexahydro-1H-pyrrolo[2,1-c][1,4]oxazin-6-yl)methoxy)-5-methyl-5a,6,7,8,9,10-hexahydro-5H-4-oxa-3,10a,11,13,14-pentaaza-6,9-methanonaphtho[1,8-ab]heptalen-2-yl)-3-methyl-4-(trifluoromethyl)aniline], the IC50 [2] was 1.64 nM, the IC50 [3] was 0.808 nM and the IC50 [4] was 3790 nM. The IC50 [5] was 423 nM.
`Cc1cc(N)c(F)c(-c2nc3c4c(nc(OC[C@@]56CCCN5C[C@H](F)C6)nc4c2F)N2C[C@H]4CC[C@H](N4)[C@H]2CO3)c1C(F)(F)F` [Compound 36, 2-fluoro-3-((5aS,6S,9R)-1-fluoro-12-(((2R,7aS)-2-fluorotetrahydro-1H-pyrrolizin-7a(5H)-yl)methoxy)-5a,6,7,8,9,10-hexahydro-5H-4-oxa-3,10a,11,13,14-pentaaza-6,9-methanonaphtho[1,8-ab]heptalen-2-yl)-5-methyl-4-(trifluoromethyl)aniline] showed an IC50 [2] of 52.4 nM, an IC50 [3] of 31.4 nM and an IC50 [4] of 6110 nM. It also gave an IC50 [5] of 1130 nM.
`C#Cc1cccc2cc(O)cc(-c3nc4c5c(nc(OC[C@@]67CCCN6C[C@H](F)C7)nc5c3F)N3C[C@H]5CC[C@H](CN5CC5COC5)[C@H]3CO4)c12` [Compound 51, 5-ethynyl-4-((5aS,6R,9R)-1-fluoro-12-(((2R,7aS)-2-fluorotetrahydro-1H-pyrrolizin-7a(5H)-yl)methoxy)-14-(oxetan-3-ylmethyl)-5a,6,7,8,9,10-hexahydro-5H-4-oxa-3,10a,11,13,14-pentaaza-6,9-ethanonaphtho[1,8-ab]heptalen-2-yl)naphthalen-2-ol] gave an IC50 [2] of 51.2 nM, an IC50 [3] of 73 nM and an IC50 [4] of 19500 nM. The IC50 [5] was 1820 nM.
`C[C@@H]1Oc2nc(-c3c(C(F)(F)F)ccc(N)c3F)c(F)c3nc(OC[C@@]45CCCN4C[C@H](F)C5)nc(c23)N2C[C@H]3CC[C@H](N3)[C@@H]12` [Compound 35, 2-fluoro-3-((5S,5aS,6S,9R)-1-fluoro-12-(((2R,7aS)-2-fluorotetrahydro-1H-pyrrolizin-7a(5H)-yl)methoxy)-5-methyl-5a,6,7,8,9,10-hexahydro-5H-4-oxa-3,10a,11,13,14-pentaaza-6,9-methanonaphtho[1,8-ab]heptalen-2-yl)-4-(trifluoromethyl)aniline] was tested, and the IC50 [2] was 10.6 nM, the IC50 [3] was 7.4 nM and the IC50 [4] was 9170 nM. For the same compound, the IC50 [5] was 5870 nM.
For `C#Cc1c(F)ccc2cc(O)cc(-c3nc4c5c(nc(OC[C@@]67CCCN6C[C@H](F)C7)nc5c3F)N3C[C@H]5CC[C@H](N5)[C@H]3CO4)c12` [Compound 81, 5-Ethynyl-6-fluoro-4-((5aS,6S,9R)-1-fluoro-12-(((2R,7aS)-2-fluorotetrahydro-1H-pyrrolizin-7a(5H)-yl)methoxy)-5a,6,7,8,9,10-hexahydro-5H-4-oxa-3,10a,11,13,14-pentaaza-6,9-methanonaphtho[1,8-ab]heptalen-2-yl)naphthalen-2-ol], the IC50 [2] was 14.7 nM, the IC50 [3] was 12.4 nM and the IC50 [4] was ≥ 20000 nM. The IC50 [5] was 4780 nM.
For `Cc1cc(N)c(F)c(-c2nc3c4c(nc(OCC56CCN5CC(F)(F)C6)nc4c2F)N2C[C@H]4CC[C@H](N4)[C@H]2[C@H](C)O3)c1C(F)(F)F` (mixture of isomers) [Compound 33, 3-((5S,5aS,6S,9R)-12-((3,3-Difluoro-1-azabicyclo[3.2.0]heptan-5-yl)methoxy)-1-fluoro-5-methyl-5a,6,7,8,9,10-hexahydro-5H-4-oxa-3,10a,11,13,14-pentaaza-6,9-methanonaphtho[1,8-ab]heptalen-2-yl)-2-fluoro-5-methyl-4-(trifluoromethyl)aniline], the IC50 [2] was 3.72 nM, the IC50 [3] was 1.29 nM and the IC50 [4] was 3920 nM. It also gave an IC50 [5] of 1850 nM.
